Data published in the OligoGym collection.
Several values for one entry are separate records, joined by “and”; a condition that tells them apart may be missing. Equal entries are not always repeated. After the bases stand the sugars from the 5' end (letter, count) and the backbone: PS all phosphorothioate, else s phosphorothioate and o phosphodiester by linkage. Methylation of C is not given here. e = 2'-O-(2-methoxyethyl) (MOE); k = constrained ethyl (cEt); d = 2'-deoxy (DNA)

Molecular target: IRF4
Details: ASO

Sequence | target mRNA inhibition (SK-MEL-28, 4 µM) [%] | target mRNA inhibition (MM.1R, 1 µM) | further results
AGCTGAGGGCAGCGGT (sugars k3 d10 k3, PS) | -7 | – | –
AGCTGCGGAGCCTGGG (sugars k3 d10 k3, PS) | – | 31% | –
AGCTTGATAAAGGCTG (sugars kdddddddddkekeke, PS) | – | 2% | –
AGCTTGATAAAGGCTG (sugars kkddddddddddkeke, PS) | – | 1% | –
AGCTTGATAAAGGCTG (sugars kkdddddddddkdkdk, PS) | – | -3% | –
AGCTTGATAAAGGCTG (sugars kkdddddddddkekek, PS) | – | 16% | –
AGCTTGATAAAGGCTG (sugars kkkddddddddkekek, PS) | – | -8% | –
AGGAACTAGTCGACAG (sugars k3 d10 k3, PS) | 40 | – | –
AGGAAGCACTGGCATT (sugars k3 d10 k3, PS) | 59 | – | –
AGGAAGCCGTTCCTTT (sugars k3 d10 k3, PS) | 42 | – | –
AGGAAGTTTACTAACT (sugars k3 d10 k3, PS) | 58 | – | –
AGGAATGAGCACTCTT (sugars k3 d10 k3, PS) | – | 7% | –
AGGAGAGGCTGAGATA (sugars k3 d10 k3, PS) | 21 | – | –
AGGCACATCAATGTTT (sugars kkdddddddddkdkdk, PS) | – | 4% and 19% | –
AGGCACCTTCGCGGCC (sugars k3 d10 k3, PS) | 18 | – | –
AGGCTAATCAGAATGG (sugars k3 d10 k3, PS) | 42 | – | –
AGGGATGGAACAGTAA (sugars k3 d10 k3, PS) | 47 | – | –
AGGTATACTTAAGCAA (sugars k3 d10 k3, PS) | 68 | – | –
AGGTCTGAGTTGTACA (sugars k3 d10 k3, PS) | – | 55% and 45% | –

Sequence | target mRNA inhibition (SK-MEL-28, 4 µM) [%] | target mRNA inhibition (MM.1R, 1 µM) | further results
AGTAACTTGACTTGAG (sugars k3 d10 k3, PS) | – | -3% | –
AGTAATTTTAAGGCCC (sugars k3 d10 k3, PS) | 60 | – | –
AGTACAAACTAAATTC (sugars k3 d10 k3, PS) | 24 | – | –
AGTATGAGAAACGGCC (sugars k3 d9 k3 e1, PS) | – | 7% | –
AGTATGAGAAACGGCC (sugars kkddddddddddkeke, PS) | – | 9% | –
AGTATGAGAAACGGCC (sugars kkdddddddddkekek, PS) | – | 3% | –
AGTATGAGAAACGGCC (sugars kkkdddddddddkeke, PS) | – | 16% | –
AGTCATCACTCTAGTC (sugars k3 d10 k3, PS) | 53 | – | –
AGTCTAGCTGGGTTTT (sugars k3 d10 k3, PS) | 63 | – | –
AGTGACCACGAGGCCC (sugars k3 d10 k3, PS) | 15 | – | –
AGTGACTTGCATCCAT (sugars k3 d10 k3, PS) | – | 67% and 58% | target mRNA inhibition (MM.1R, 0.0625 µM): 10%; target mRNA inhibition (MM.1R, 0.25 µM): 28%; target mRNA inhibition (MM.1R, 4 µM): 78%
AGTGACTTGCATCCAT (sugars kkdddddddddekeke, PS) | – | 34% | –
AGTGACTTGCATCCAT (sugars kkdddddddddkekek, PS) | – | 27% | –
AGTGAGAAAACCCCCC (sugars k3 d10 k3, PS) | – | 8% | –
AGTGATGTCAGGTTTT (sugars e1 k2 d9 k2 e2, PS) | – | 39% | –
AGTGATGTCAGGTTTT (sugars k3 d9 k3 e1, PS) | – | 65% | target mRNA inhibition (MM.1R, 0.074 µM): 13%; target mRNA inhibition (MM.1R, 0.222 µM): 40%; target mRNA inhibition (MM.1R, 0.666 µM): 64%; target mRNA inhibition (MM.1R, 2 µM): 86%
AGTGATGTCAGGTTTT (sugars kddddddddddkekek, PS) | – | 25% | –
AGTGATGTCAGGTTTT (sugars kkdddddddddkekek, PS) | – | 39% | –
AGTGATGTCAGGTTTT (sugars kkkdddddddddkeke, PS) | – | 59% | target mRNA inhibition (MM.1R, 0.074 µM): 15%; target mRNA inhibition (MM.1R, 0.222 µM): 36%; target mRNA inhibition (MM.1R, 0.666 µM): 55%; target mRNA inhibition (MM.1R, 2 µM): 79%
